Four molecules from ChEMBL document CHEMBL1201862, “PubChem BioAssay data set” (2004) can be followed below.

Experiment [1] has as its system Streptococcus sp. 'group A'. Description: growth inhibition of control SK(-) GAS strain, dose response, counter-screen for streptokinase expression inhibitor project, luminescence, kanamycin, BacTiterGlo, confirmation (AID 1900). The experiment is classed as functional, organism-based.
A short description of experiment [2]: C. albicans growth with fluconazole, confirmation, fluorescence, retest (AID 2467). In kind it is functional, cell-based.
The target in a further experiment is T1, Streptokinase A (Streptococcus pyogenes serotype M1, UniProt P10520).
T1 sequence (P10520 whole entry): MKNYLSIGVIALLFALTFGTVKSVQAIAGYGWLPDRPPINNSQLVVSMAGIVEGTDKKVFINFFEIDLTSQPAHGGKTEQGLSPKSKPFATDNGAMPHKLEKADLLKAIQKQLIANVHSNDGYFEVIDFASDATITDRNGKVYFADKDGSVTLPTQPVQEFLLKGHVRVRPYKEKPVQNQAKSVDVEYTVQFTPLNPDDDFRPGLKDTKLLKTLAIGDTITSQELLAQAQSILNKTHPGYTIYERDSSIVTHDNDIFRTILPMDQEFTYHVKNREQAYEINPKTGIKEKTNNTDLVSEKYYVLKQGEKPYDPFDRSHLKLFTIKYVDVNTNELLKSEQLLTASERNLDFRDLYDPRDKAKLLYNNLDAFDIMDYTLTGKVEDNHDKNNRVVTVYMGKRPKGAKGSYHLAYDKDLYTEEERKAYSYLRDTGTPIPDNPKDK
Description: S. pyogenes streptokinase expression inhibitors, potency, dose response, plasminogen activation absorbance, OD405 (AID 1914).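 Note: secreted streptokinase activity via plasminogen activation per viability signal from cell pellet.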 The experiment is classed as functional, Streptococcus pyogenes M1 GAS.

Another experiment relates to Streptococcus. The experiment in a line: Group A Streptococcus viability loss, dose response, counter-screen for streptokinase expression inhibitor project, luminescence, BacTiterGlo (AID 1915).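 Note: potency for reduction of bacterial viability or growth.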 In kind it is functional, organism-based.
Experiment [3] can be described thus: NIH-3T3 fibroblast cytotoxicity, dose response, cytotoxicity control, cell-based, fluorescence, Alamar Blue, secondary assay (AID 2327).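 Note: NIH-3T3 mouse fibroblasts cultured with fluconazole at 8 µg/mL.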 In kind it is functional. (In general: Alamar Blue is a resazurin reagent that responds to reducing activity.)
For experiment [4], the target named is T2, Tyrosyl-DNA phosphodiesterase 2 (Homo sapiens, UniProt O95551).
T2 sequence (O95551 whole entry): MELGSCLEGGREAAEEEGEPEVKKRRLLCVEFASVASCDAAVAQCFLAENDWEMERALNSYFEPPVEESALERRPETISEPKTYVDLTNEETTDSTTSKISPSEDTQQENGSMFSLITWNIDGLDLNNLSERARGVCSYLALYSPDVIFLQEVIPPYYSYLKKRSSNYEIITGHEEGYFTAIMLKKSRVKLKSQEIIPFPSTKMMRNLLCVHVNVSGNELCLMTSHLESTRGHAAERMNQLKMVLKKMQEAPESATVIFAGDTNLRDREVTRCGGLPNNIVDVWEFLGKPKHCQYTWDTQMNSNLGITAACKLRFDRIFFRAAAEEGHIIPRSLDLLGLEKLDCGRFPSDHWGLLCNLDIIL
Description: human TDP2 enzyme inhibitors, dose response, biochemical, epi absorbance, IC50 (AID 743297).

The target in experiment [5] is T3, Apoptotic protease-activating factor 1 (Homo sapiens, UniProt O14727).
T3 sequence (O14727 whole entry): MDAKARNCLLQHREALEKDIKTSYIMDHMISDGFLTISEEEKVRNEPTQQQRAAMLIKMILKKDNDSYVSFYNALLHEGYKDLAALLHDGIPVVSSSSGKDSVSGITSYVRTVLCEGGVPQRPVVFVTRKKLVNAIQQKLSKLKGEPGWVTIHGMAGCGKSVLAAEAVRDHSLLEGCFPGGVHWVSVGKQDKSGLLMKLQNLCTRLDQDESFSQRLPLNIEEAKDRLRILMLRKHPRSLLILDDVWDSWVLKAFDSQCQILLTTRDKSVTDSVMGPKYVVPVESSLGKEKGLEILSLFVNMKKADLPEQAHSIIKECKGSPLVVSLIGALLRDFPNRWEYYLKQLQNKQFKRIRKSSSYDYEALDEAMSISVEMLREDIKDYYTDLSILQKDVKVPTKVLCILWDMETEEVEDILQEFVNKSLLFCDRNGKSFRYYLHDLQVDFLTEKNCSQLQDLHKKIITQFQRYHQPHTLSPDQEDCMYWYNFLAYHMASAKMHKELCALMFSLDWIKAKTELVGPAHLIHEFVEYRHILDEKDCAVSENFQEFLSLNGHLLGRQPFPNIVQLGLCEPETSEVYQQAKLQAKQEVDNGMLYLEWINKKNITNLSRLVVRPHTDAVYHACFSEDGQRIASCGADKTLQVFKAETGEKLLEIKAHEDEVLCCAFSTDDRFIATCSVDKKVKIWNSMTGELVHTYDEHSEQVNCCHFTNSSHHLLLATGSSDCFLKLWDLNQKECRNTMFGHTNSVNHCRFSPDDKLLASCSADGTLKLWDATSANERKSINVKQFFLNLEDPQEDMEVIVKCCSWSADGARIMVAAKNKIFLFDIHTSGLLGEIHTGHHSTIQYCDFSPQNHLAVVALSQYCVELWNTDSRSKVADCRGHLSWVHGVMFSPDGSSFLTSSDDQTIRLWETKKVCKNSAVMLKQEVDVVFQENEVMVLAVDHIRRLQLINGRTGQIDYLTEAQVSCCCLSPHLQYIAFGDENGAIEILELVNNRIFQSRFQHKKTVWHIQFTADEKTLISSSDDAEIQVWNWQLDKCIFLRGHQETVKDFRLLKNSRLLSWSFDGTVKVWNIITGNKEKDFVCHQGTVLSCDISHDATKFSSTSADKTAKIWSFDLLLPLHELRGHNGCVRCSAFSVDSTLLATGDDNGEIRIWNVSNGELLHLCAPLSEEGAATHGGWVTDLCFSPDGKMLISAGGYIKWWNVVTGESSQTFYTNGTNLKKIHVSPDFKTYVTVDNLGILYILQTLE
In kind it is functional.

Experiment [6] is described as follows: inhibitors of PGC1a acetylation in cells, dose response, cell-based, cherry-picked samples (AID 720514).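 Note: potency may reflect raised or lowered acetylation signal.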 In kind it is functional.
A short description of experiment [7]: HepG2 cell cytotoxicity, dose response, cytotoxicity control for Shn3 inhibitor project, CellTiter-Glo, cherry-picked (AID 624134). The experiment is classed as functional, cell-based. A general note: In ATP-based viability assays light output follows the ATP content of the culture.
Experiment [8] in a line: control 3'UTR Renilla luciferase suppression, dose response, counter-screen for Shn3 inhibitor project, cell-based, Clone20-Shn3RL, cherry-picked (AID 624133). The experiment is classed as functional. In general terms: The purpose of a counterscreen is to sort out artefacts and off-target activity.
A short description of experiment [9]: Shn3 3'UTR reporter inhibitors, dose response, cell-based, Clone20 osteoblasts, firefly luciferase, cherry-picked (AID 624132).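 Note: firefly luciferase luminescence from reporter carrying the Shn3 3'UTR in osteoblasts.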 The experiment is classed as functional.
The target of another experiment is Paired box protein Pax-8 (Homo sapiens, UniProt Q06710). Description: inhibitors of PAX8-driven TPO luciferase reporter, dose response, RMG-I cells, cherry-pick (AID 687027).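 Note: luciferase reporter driven by Pax8 target thyroperoxidase promoter measured by SteadyGlo luminescence.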 In kind it is functional, cell-based.
Experiment [10] is described as follows: cytotoxicity in OVCAR8 ovarian cancer cells, dose response, PAX8 project, cell-based, plate reader, dry powder samples (AID 743197). The experiment is classed as functional. The note with it: OVCAR-8.
Experiment [11] can be described thus: NIH:OVCAR-3 ovarian cancer cell cytotoxicity, dose response, PAX8 inhibitor project, plate reader, dry powder samples (AID 743044). The experiment is classed as functional, cell-based.
A short description of experiment [12]: A2780 ovarian cancer cell cytotoxicity, dose response, cytotoxicity control, plate reader, dry powder samples (AID 743046). The experiment is classed as functional, cell-based.

Active and inactive are the calls of the source.

Paired box protein Pax-8, sequence (Q06710 whole entry): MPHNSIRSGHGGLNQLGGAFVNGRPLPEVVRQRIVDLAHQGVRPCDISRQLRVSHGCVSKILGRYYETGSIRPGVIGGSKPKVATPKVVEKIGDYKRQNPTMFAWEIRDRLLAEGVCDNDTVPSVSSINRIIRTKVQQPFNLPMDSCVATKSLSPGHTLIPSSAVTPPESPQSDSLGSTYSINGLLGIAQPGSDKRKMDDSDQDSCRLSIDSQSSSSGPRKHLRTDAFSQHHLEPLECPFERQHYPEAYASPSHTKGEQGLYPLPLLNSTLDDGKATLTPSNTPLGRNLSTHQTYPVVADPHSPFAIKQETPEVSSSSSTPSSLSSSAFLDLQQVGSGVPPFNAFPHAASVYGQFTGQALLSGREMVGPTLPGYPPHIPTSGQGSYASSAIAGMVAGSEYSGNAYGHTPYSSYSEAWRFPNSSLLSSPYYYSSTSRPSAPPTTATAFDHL

What is called EC50 is the concentration that produces a half-maximal response. In general, IC50 refers to the concentration needed to halve the response being measured. With `Oc1c(Br)cc(Br)cc1CNc1cccc2cccnc12`, the EC50 in experiment [1] is 6.08 µM (active); in experiment [2], > 38 µM (not active); on Streptokinase A, > 150 µM (not active); with Streptococcus, 9.25 µM (active); in experiment [3], 101 µM (active). Moreover, the figures for the IC50 in experiment [4] and in [5] were > 128 µM (inactive) and 40.2 µM (active), respectively.
For orientation: AC50 means the concentration at which the activity in the assay is half-maximal. `COc1ccccc1NC(=O)Cn1c(C)cc(=O)c2cccc(OC)c21`: the AC50 was 35.8 µM (active) in experiment [6], 48.1 µM (active) in [7], 4.46 µM (active) in experiment [8] and 3.16 µM (active) in experiment [9].
Turning to `C[C@@H]1CN([C@H](C)CO)C(=O)c2cc(NS(=O)(=O)c3cccs3)ccc2O[C@@H](C)CCCCO[C@H]1CN(C)Cc1ccc(C(F)(F)F)cc1`, the AC50 on Paired box protein Pax-8 was 8.66 µM (active); in [10], > 70 µM (inactive).
Turning to `C[C@@H]1CCCCO[C@@H](CN(C)Cc2ccc(Cl)c(Cl)c2)[C@H](C)CN([C@H](C)CO)C(=O)c2cc(NC(=O)c3ccccc3)ccc2O1`, the AC50 is 3.16 µM (active) in experiment [11], 14 µM (active) at Paired box protein Pax-8, 33.8 µM (active) in [12] and 27.5 µM (active) in [10].
